According to ChEMBL document CHEMBL4616697, “Discovery of Adamantane Carboxamides as Ebola Virus Cell Entry and Glycoprotein Inhibitors” (ACS Med Chem Lett, 2020):
pEC50: −log10 of the molar value. In brackets after ≈: the same amount, converted by molar mass. Activity calls are given as the source filed them. The rule behind the calls is not given here.

Assays:
[1] = Inhibition of glycoprotein in VSV pseudotyped Ebolavirus infected in African green monkey Vero cells assessed as reduction in virus entry incubated for 24 hrs by luciferase reporter gene assay; type: cell-based
[2] = Metabolic stability in human liver microsomes assessed as parent compound remaining at 1 uM pretreated for 30 mins followed by NADPH addition and measured after 60 mins by LC-MS/MS analysis; type: ADME, Microsome; details: for Stability: microsomes, 1 h, 1 µM; for remaining at 1 h, 1 µM: liver microsomes, read-out: Stability
[3] = Aqueous solubility of compound in PBS at pH 7.4 measured after 2 hrs by spectrophotometry analysis; type: physicochemical
[4] = Cytotoxicity against African green monkey Vero E6 cells assessed as reduction in cell viability incubated for 10 days by neutral red dye based spectrophotometry analysis; parameters: species or system Vero C1008; details: chlorocebus sabaeus
[5] = Metabolic stability in mouse liver microsomes assessed as parent compound remaining at 1 uM pretreated for 30 mins followed by NADPH addition and measured after 60 mins by LC-MS/MS analysis; type: ADME, Microsome; details: read-out: Stability
[6] = Selectivity index, ratio of CC50 for African green monkey Vero E6 cells assessed as reduction in cell viability incubated for 10 days by neutral red dye based spectrophotometry analysis to EC90 for wild type Ebolavirus infected in African green monkey Vero E6 cells assessed as reduction in viral replication by virus yield reduction assay; type: toxicity, Vero C1008; details: read-out: Selectivity Index
[7] = system: Ebolavirus; assay: Antiviral activity against wild type Ebolavirus infected in African green monkey Vero cells assessed as reduction in plaque forming units incubated for 10 days by crystal violet staining based assay; type: functional, organism-based; details: Orthoebolavirus, 240 h
[8] = Metabolic stability in dog liver microsomes assessed as parent compound remaining at 1 uM pretreated for 30 mins followed by NADPH addition and measured after 60 mins by LC-MS/MS analysis; type: ADME, Canis lupus familiaris, Microsome; details: read-out: Stability
[9] = Metabolic stability in Cynomolgus monkey liver microsomes assessed as parent compound remaining at 1 uM pretreated for 30 mins followed by NADPH addition and measured after 60 mins by LC-MS/MS analysis; type: ADME, Macaca fascicularis, Microsome; details: read-out: Stability
[10] = Metabolic stability in rat liver microsomes assessed as parent compound remaining at 1 uM pretreated for 30 mins followed by NADPH addition and measured after 60 mins by LC-MS/MS analysis; type: ADME, Microsome; details: read-out: Stability
[11] = system: Ebolavirus; assay: Antiviral activity against wild type Ebolavirus infected in African green monkey Vero E6 cells assessed as inhibition of viral entry compound treated with primary viral infected cells for 60 mins and after 3 days post-infection measured following 10 days of compound incubation with fresh cells infected with primary culture supernatants by virus yield reduction assay; type: functional; details: Orthoebolavirus, Vero C1008
[12] = Metabolic stability in guinea pig liver microsomes assessed as parent compound remaining at 1 uM pretreated for 30 mins followed by NADPH addition and measured after 60 mins by LC-MS/MS analysis; type: ADME, Cavia porcellus, Microsome; details: read-out: Stability
[13] = Kinetic aqueous solubility of compound in PBS at pH 6.4 to 7.5 measured after 2 hrs by spectrophotometry analysis; type: physicochemical; details: read-out: Kinetic_solubility
[14] = system: Vero; assay: Inhibition of glycoprotein in pseudotyped Vesicular stomatitis virus infected in African green monkey Vero cells assessed as reduction in virus entry at 5 uM incubated for 24 hrs by luciferase reporter gene assay; type: cell-based
[15] = system: Vero; assay: Inhibition of glycoprotein in VSV pseudotyped Ebolavirus infected in African green monkey Vero cells assessed as reduction in virus entry at 5 uM incubated for 24 hrs by luciferase reporter gene assay relative to control; type: cell-based
[16] = Selectivity index, ratio of CC50 for African green monkey Vero E6 cells assessed as reduction in cell viability incubated for 10 days by neutral red dye based spectrophotometry analysis to EC50 for wild type Ebolavirus infected in African green monkey Vero cells assessed as reduction in plaque forming units incubated for 10 days by crystal violet staining based assay; type: toxicity, Vero C1008; details: read-out: Ratio CC50/EC50

`CCC12CC3CC(C(=O)N[C@H]4CC[C@H](N)CC4)(C1)CC(c1ccccc1)(C3)C2` (stereo in doubt; 43) gave a pEC50 ([1]; vero) of 6.46.
For `CC12CC3CC(C(=O)N[C@H]4CC[C@H](CN)CC4)(C1)CC(c1ccccc1)(C3)C2` (stereo in doubt; 40), the Stability [2] was 82%, the solubility at 2 h [3] was > 20 mg/mL and the pEC50 ([1]; vero) was 8.00. For the same molecule, the CC50 at 240 h [4] was 22000 nM, the remaining at 1 h, 1 µM [5] was 27% and the selectivity ratio at 240 h [6] was 40. For the same molecule, the pEC50 [7] was 6.37, the remaining at 1 h, 1 µM [8] was 85% and the remaining at 1 h, 1 µM [9] was 61%. It also gave a remaining at 1 h, 1 µM [10] of 27%, an EC90 [11] of 550 nM and a remaining at 1 h, 1 µM [12] of 99%.
In the case of `CCC12CC3CC(C(=O)N[C@H]4CC[C@H](N)CC4)(C1)CC(c1ccccc1)(C3)C2` (mixture of isomers), the remaining at 1 h, 1 µM [2] was 71%, the pEC50 ([1]; vero) was 8.00 and the solubility kinetic at 2 h [13] was > 100 µM.
In the case of `O=C(NC1CCN(Cc2ccccc2)CC1)C12CC3CC(CC(C3)C1)C2`, the pEC50 ([1]; Orthoebolavirus, Vero, 24 h) was 5.41, the inhibition [14] was “inactive” and the solubility kinetic at 2 h [13] was > 100 µM. The inhibition [15] was > 50%.
For `C[C@H]1C[C@H](NC(=O)C23CC4CC(C)(C2)CC(c2ccccc2)(C4)C3)CCN1` (mixture of isomers), the remaining at 1 h, 1 µM [2] was 75%, the pEC50 ([1]; Orthoebolavirus, Vero, 24 h) was 7.34 and the solubility kinetic at 2 h [13] was > 100 µM.
With `O=C(NC1CCNCC1)C12CC3CC(C1)CC(c1ccccc1)(C3)C2` the pEC50 ([1]; Orthoebolavirus, Vero, 24 h) was 7.14 and the solubility kinetic at 2 h [13] was > 100 µM.
With `CC12CC3CC(C(=O)N[C@H]4CC[C@H](N)CC4)(C1)CC(c1ccccc1)(C3)C2` (mixture of isomers) the remaining at 1 h, 1 µM [2] was 92%, the pEC50 ([1]; vero) was 7.51 and the solubility kinetic at 2 h [13] was > 100 µM.
In the case of `CC12CC3CC(C(=O)NC4CNC4)(C1)CC(c1ccccc1)(C3)C2` (racemic), the pEC50 ([1]; Orthoebolavirus, Vero, 24 h) was 6.55 and the solubility kinetic at 2 h [13] was > 100 µM.
In the case of `CC12CC3(C)CC(C(=O)NC4CCNCC4)(C1)CC(c1ccccc1)(C2)C3`, the pEC50 ([1]; Orthoebolavirus, Vero, 24 h) was 6.49 and the solubility kinetic at 2 h [13] was > 100 µM.
`CC12CC3CC(C(=O)N[C@H]4[C@@H]5CNC[C@@H]54)(C1)CC(c1ccccc1)(C3)C2` (mixture of isomers) showed a pEC50 ([1]; Orthoebolavirus, Vero, 24 h) of 6.92 and a solubility kinetic at 2 h [13] of 61 µM (≈ 21.4 µg/mL).
For `CN1CCC(NC(=O)C23CC4CC(C2)CC(c2ccccc2)(C4)C3)CC1`, the pEC50 ([1]; Orthoebolavirus, Vero, 24 h) was 6.80 and the solubility kinetic at 2 h [13] was > 100 µM.
For `CC12CC3CC(C(=O)N4CCC(N)CC4)(C1)CC(c1ccccc1)(C3)C2` (racemic), the remaining at 1 h, 1 µM [2] was 81%, the pEC50 ([1]; Orthoebolavirus, Vero, 24 h) was 7.29 and the solubility kinetic at 2 h [13] was > 100 µM.
With `O=C(N1CCNCC1)C12CC3CC(C1)CC(c1ccccc1)(C3)C2` the pEC50 ([1]; Orthoebolavirus, Vero, 24 h) was 6.59 and the solubility kinetic at 2 h [13] was > 100 µM.
In the case of `O=C(NC1CCN(Cc2ccccc2)CC1)C12CC3CC(C1)CC(c1ccccc1)(C3)C2`, the pEC50 ([1]; Orthoebolavirus, Vero, 24 h) was 6.42 and the solubility kinetic at 2 h [13] was > 100 µM.
For `CC12CC3CC(C(=O)NCC4CCNCC4)(C1)CC(c1ccccc1)(C3)C2` (racemic), the pEC50 ([1]; Orthoebolavirus, Vero, 24 h) was 6.38 and the solubility kinetic at 2 h [13] was > 100 µM.
In the case of `O=C(NC1CCNCC1)C1C2CC3CC1CC(c1ccccc1)(C3)C2` (stereo not given), the pEC50 ([1]; Orthoebolavirus, Vero, 24 h) was 6.74 and the solubility kinetic at 2 h [13] was > 100 µM.
For `O=C(CC12CC3CC(C1)CC(c1ccccc1)(C3)C2)NC1CCNCC1`, the pEC50 ([1]; Orthoebolavirus, Vero, 24 h) was 6.31 and the solubility kinetic at 2 h [13] was > 100 µM.
For `CCC12CC3CC(C(=O)N[C@H]4CC[C@H](N)CC4)(C1)CC(c1ccccc1)(C3)C2` (stereo in doubt; 42), the Stability [2] was 65%, the solubility at 2 h [3] was > 20 mg/mL and the pEC50 ([1]; vero) was 7.92. For the same molecule, the CC50 at 240 h [4] was 31000 nM, the remaining at 1 h, 1 µM [5] was 60% and the pEC50 [7] was 6.85. It also gave a remaining at 1 h, 1 µM [8] of 77%, a remaining at 1 h, 1 µM [9] of 60% and a remaining at 1 h, 1 µM [10] of 46%. For the same molecule, the selectivity ratio at 240 h [16] was 221 and the remaining at 1 h, 1 µM [12] was 36%.
With `CC12CC3CC(C(=O)NC4CC5(CC(N)C5)C4)(C1)CC(c1ccccc1)(C3)C2` (racemic) the remaining at 1 h, 1 µM [2] was 79%, the pEC50 ([1]; Orthoebolavirus, Vero, 24 h) was 7.40 and the solubility kinetic at 2 h [13] was > 100 µM.
For `O=C(NC1CCNCC1)C12CC3CC(C1)CC(c1ccc(Cl)cc1)(C3)C2`, the pEC50 ([1]; Orthoebolavirus, Vero, 24 h) was 6.72 and the solubility kinetic at 2 h [13] was > 100 µM.
For `CC12CC3CC(C(=O)N[C@H]4CC[C@H](N)CC4)(C1)CC(c1ccccc1)(C3)C2` (stereo in doubt; 38), the Stability [2] was 100%, the solubility at 2 h [3] was > 20 mg/mL and the pEC50 ([1]; vero) was 7.85. It also gave a CC50 at 240 h [4] of 58000 nM, a remaining at 1 h, 1 µM [5] of 74% and a selectivity ratio at 240 h [6] of 77. It also gave a pEC50 [7] of 6.62, a remaining at 1 h, 1 µM [8] of 96% and a remaining at 1 h, 1 µM [9] of 89%. For the same molecule, the remaining at 1 h, 1 µM [10] was 63%, the EC90 [11] was 750 nM and the remaining at 1 h, 1 µM [12] was 100%.
In the case of `CC12CC3CC(C(=O)N[C@H]4CC[C@H](CN)CC4)(C1)CC(c1ccccc1)(C3)C2` (mixture of isomers), the remaining at 1 h, 1 µM [2] was 75%, the pEC50 ([1]; vero) was 7.52 and the solubility kinetic at 2 h [13] was > 100 µM.
